# Data taken from the supplement of paper PMC7394473.
# What was measured:
# Conditions in all cases: 72 h
# U2OS [1] = assay: GRmin (fitted minimal GR value at highest effect) (GR value (dimensionless)); higher = less efficacious
# Method: (§1)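 U2OS cells treated with full dose titrations of drug; live and dead cells counted by STACK microscopy (mKate2 nuclei, SYTOX Green) at 72 h, biological triplicates. GR and FV dose responses were fitted with 4-parameter logistic models (GR lower bound -1). GRADE (0-100) is the rescaled angle of a linear fit of FV versus GR at doses with GR >= 0, giving the percentage of the response due to cell death.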
# U2OS [2] = assay: GR50 (concentration giving GR = 0.5)
# Method: as §1
# U2OS [3] = assay: fractional viability (live cells / total cells); higher = less cell death
# Method: (§2)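 U2OS::Nuc-mKate2 cells seeded in 96-well plates and treated with eight- to ten-point half-log or log dilutions of drug in the presence of 50 nM SYTOX Green. Live (mKate2+) and dead (SYTOX+) cells were counted by IncuCyte STACK live-cell microscopy at 72 h; biological triplicates. GR is the normalised growth-rate inhibition value (Hafner 2016; 1 = untreated growth, <0 = population shrinking). FV is live/(live+dead) cells, not normalised.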
# U2OS [4] = assay: normalized growth rate inhibition value (GR) relative to untreated cells (GR value (dimensionless, 1 = untreated growth)); higher = less growth inhibition
# Method: as §2
# U2OS [5] = assay: FV IC50 (concentration giving fractional viability 0.5); higher = less potent killing
# Method: as §1
# U2OS [6] = assay: drug GRADE (percent of response due to cell death) (% (0-100)); higher = more death-driven response
# Method: as §1
Compound,GRmin (U2OS [1]),GR50 (U2OS [2]) [µM],fractional viability (U2OS [3]; 0.01 µM),fractional viability (U2OS [3]; 0.0316 µM),fractional viability (U2OS [3]; 0.1 µM),fractional viability (U2OS [3]; 0.316 µM),fractional viability (U2OS [3]; 1 µM),fractional viability (U2OS [3]; 3.16 µM),fractional viability (U2OS [3]; 10 µM),fractional viability (U2OS [3]; 31.6 µM),normalized growth rate inhibition value (U2OS [4]; 0.01 µM),normalized growth rate inhibition value (U2OS [4]; 0.0316 µM),normalized growth rate inhibition value (U2OS [4]; 0.1 µM),normalized growth rate inhibition value (U2OS [4]; 0.316 µM),normalized growth rate inhibition value (U2OS [4]; 1 µM),normalized growth rate inhibition value (U2OS [4]; 3.16 µM),normalized growth rate inhibition value (U2OS [4]; 10 µM),normalized growth rate inhibition value (U2OS [4]; 31.6 µM),FV IC50 (U2OS [5]) [µM],drug GRADE (U2OS [6]),other results
COC(=O)Nc1nc2cc(C(=O)c3ccc(F)cc3)ccc2[nH]1 [Flubendazole],-0.0291,0.566,0.981,0.978,0.971,0.95,0.766,0.595,0.516,0.468,0.993,1,0.892,0.706,0.286,0.11,-0.01,-0.0371,10.7,61.2,–
CC[C@@]1(O)C(=O)OCc2c1cc1n(c2=O)Cc2cc3c(CN(C)C)c(O)ccc3nc2-1 [Topotecan],-0.0768,0.0151,–,–,–,–,–,–,0.444,–,–,–,–,–,–,–,-0.295,–,7.66,9.92,fractional viability (U2OS [3]; 0.00100578 µM): 0.985; fractional viability (U2OS [3]; 0.00317827 µM): 0.985; fractional viability (U2OS [3]; 0.0100433 µM): 0.978; fractional viability (U2OS [3]; 0.0317369 µM): 0.94; fractional viability (U2OS [3]; 0.100289 µM): 0.963; fractional viability (U2OS [3]; 0.316912 µM): 0.923; fractional viability (U2OS [3]; 1.00144 µM): 0.846; fractional viability (U2OS [3]; 3.16456 µM): 0.675; normalized growth rate inhibition value (U2OS [4]; 0.00100578 µM): 1.09; normalized growth rate inhibition value (U2OS [4]; 0.00317827 µM): 0.979; normalized growth rate inhibition value (U2OS [4]; 0.0100433 µM): 0.698; normalized growth rate inhibition value (U2OS [4]; 0.0317369 µM): 0.105; normalized growth rate inhibition value (U2OS [4]; 0.100289 µM): 0.14; normalized growth rate inhibition value (U2OS [4]; 0.316912 µM): 0.0543; normalized growth rate inhibition value (U2OS [4]; 1.00144 µM): -0.044; normalized growth rate inhibition value (U2OS [4]; 3.16456 µM): -0.147
C[C@@H]1O[C@@H](O[C@H]2C[C@@H](O)[C@]3(CO)[C@H]4[C@H](O)C[C@]5(C)[C@@H](C6=CC(=O)OC6)CC[C@]5(O)[C@@H]4CC[C@]3(O)C2)[C@H](O)[C@H](O)[C@H]1O [Ouabain],-0.593,0.0164,0.977,0.763,0.249,0.165,0.149,0.142,0.161,0.141,0.661,0.148,-0.42,-0.554,-0.569,-0.6,-0.579,-0.629,0.0526,30.9,–
CNc1cc(-c2cccc(Cl)c2Cl)nc(N)n1 [TH287],-0.144,0.672,0.973,0.981,0.976,0.953,0.787,0.534,0.383,0.476,0.956,0.997,0.99,0.786,0.278,0.0764,-0.106,-0.187,3.64,60,–
Cc1cc(Nc2ccc(NC(=O)c3ccc(Nc4ccnc5ccccc45)cc3)cc2)nc(N)n1 [SGI-1027],-0.799,1.15,0.975,0.977,0.98,0.975,0.87,0.0651,0.00115,0.0226,0.952,1.02,0.932,0.948,0.642,-0.651,-0.88,-0.717,1.62,37.1,–
CCc1cnn2c(NCc3ccc[n+]([O-])c3)cc(N3CCCC[C@H]3CCO)nc12 [Dinaciclib],-0.376,0.00437,–,–,–,–,0.406,–,–,–,–,–,–,–,-0.373,–,–,–,0.00807,3.29,fractional viability (U2OS [3]; 0.000100578 µM): 0.986; fractional viability (U2OS [3]; 0.000317827 µM): 0.983; fractional viability (U2OS [3]; 0.00100433 µM): 0.984; fractional viability (U2OS [3]; 0.00317369 µM): 0.972; fractional viability (U2OS [3]; 0.0100289 µM): 0.41; fractional viability (U2OS [3]; 0.0316912 µM): 0.32; fractional viability (U2OS [3]; 0.100144 µM): 0.339; fractional viability (U2OS [3]; 0.316456 µM): 0.35; normalized growth rate inhibition value (U2OS [4]; 0.000100578 µM): 0.892; normalized growth rate inhibition value (U2OS [4]; 0.000317827 µM): 0.802; normalized growth rate inhibition value (U2OS [4]; 0.00100433 µM): 0.876; normalized growth rate inhibition value (U2OS [4]; 0.00317369 µM): 0.756; normalized growth rate inhibition value (U2OS [4]; 0.0100289 µM): -0.288; normalized growth rate inhibition value (U2OS [4]; 0.0316912 µM): -0.406; normalized growth rate inhibition value (U2OS [4]; 0.100144 µM): -0.368; normalized growth rate inhibition value (U2OS [4]; 0.316456 µM): -0.358
CC[C@@]1(O)C(=O)OCc2c1cc1n(c2=O)Cc2cc3ccccc3nc2-1 [Camptothecin],-0.368,0.00513,0.91,0.898,0.869,0.661,0.448,0.213,–,–,0.219,0.0844,0.0979,-0.0587,-0.211,-0.411,–,–,0.761,25.1,fractional viability (U2OS [3]; 0.001 µM): 0.969; fractional viability (U2OS [3]; 0.00316 µM): 0.949; normalized growth rate inhibition value (U2OS [4]; 0.001 µM): 0.83; normalized growth rate inhibition value (U2OS [4]; 0.00316 µM): 0.651
O=C(CCCCCCC(=O)Nc1ccccc1)NO [Vorinostat],-0.601,0.274,–,–,–,–,–,–,0.091,–,–,–,–,–,–,–,-0.591,–,0.765,28,fractional viability (U2OS [3]; 0.00100578 µM): 0.992; fractional viability (U2OS [3]; 0.00317827 µM): 0.99; fractional viability (U2OS [3]; 0.0100433 µM): 0.991; fractional viability (U2OS [3]; 0.0317369 µM): 0.985; fractional viability (U2OS [3]; 0.100289 µM): 0.973; fractional viability (U2OS [3]; 0.316912 µM): 0.875; fractional viability (U2OS [3]; 1.00144 µM): 0.365; fractional viability (U2OS [3]; 3.16456 µM): 0.16; normalized growth rate inhibition value (U2OS [4]; 0.00100578 µM): 0.932; normalized growth rate inhibition value (U2OS [4]; 0.00317827 µM): 1.11; normalized growth rate inhibition value (U2OS [4]; 0.0100433 µM): 0.89; normalized growth rate inhibition value (U2OS [4]; 0.0317369 µM): 0.906; normalized growth rate inhibition value (U2OS [4]; 0.100289 µM): 0.901; normalized growth rate inhibition value (U2OS [4]; 0.316912 µM): 0.396; normalized growth rate inhibition value (U2OS [4]; 1.00144 µM): -0.201; normalized growth rate inhibition value (U2OS [4]; 3.16456 µM): -0.515
CC(C)C[C@@H](C=O)NC(=O)[C@H](CC(C)C)NC(=O)[C@H](CC(C)C)NC(=O)OCc1ccccc1 [MG-132],-0.949,1.03,0.973,0.977,0.979,0.974,0.929,0.226,0.00177,0,1.02,1.01,0.929,0.9,0.524,-0.442,-0.885,-0.93,2.24,13.5,–
